Laboratory results from patent US8273768B2, “Iso CA-4 and analogues thereof as potent cytotoxic agents inhibiting tubuline polymerization” (Centre National de la Recherche Scientifique (CNRS), priority 2007, dated 2012).

How the values were obtained:
[1] = Cytotoxicity on human endothelial cells; format: cell-based; conditions: human; EAhy926, measured after 72 hours; read-out: IC50, cytotoxic activity on EAhy926 (FIG. 4 legend)
Description: (§1) Cytotoxicity of compound (I-1) towards human endothelial cells (EAhy926) was evaluated after 1 hour, 3 hours and 6 hours of treatment. The number of living cells was either counted immediately at the end of the treatment (FIG. 3) or 72 hours after stopping the treatment (FIG. 4). It is observed that when the endothelial cells are treated for 72 hours with the compound (I-1), the IC50 is 2 nM.
(§2) The EAhy926 cells (immortalized HUVEC macrovascular endothelial cells) were cultivated in a culture medium “Dulbecco minimal essential medium” (DMEM) containing 4.5 g/L of glucose and supplemented with 10% fetal calf serum, 1% glutamine and a supplement of HAT (100 μM of hypoxanthine, 0.4 μM of aminopterin and 16 μM of thymidine, Invitrogen; Cergy-Pontoise, France). The cells were maintained in the culture at 37° C. in a humid atmosphere containing 5% CO2.
(§3) The cells were sown in 96-well culture plates in an amount of 3,000 cells per well in 50 μL of culture medium. […] At the end of the treatment, the number of cells was evaluated by using the reagent “CellTiter-Blue™” (Promega, Wis., USA) as described earlier. In parallel, after 1 hour, 3 hours or 6 hours of treatment with compound (I-1), the culture medium was removed and replaced with fresh medium for 72 hours and the number of living cells was then measured by using the reagent “CellTiter-Blue™”.

[2] = test system: human endothelial cells (EAhy926); assay: Cytotoxicity on human endothelial cells; format: cell-based; conditions: EAhy926, 1 hour, 3 hours or 6 hours of treatment, dose of 10 nM
Description: as §1, §2, §3

[3] = molecular target: T1, purified tubulin from pig brains (Sus scrofa, UniProt P02550+P02554); assay: Inhibition of polymerization of tubulin (turbidimetry); format: biochemical; conditions: pig brain tubulin, turbidimetry at 350 nm
T1 construct: from pig brains, where it forms 20-25% of the soluble proteins; from tissue; host or cells: pig brain
Description: Tests relating to the inhibition of polymerization of tubulin were carried out on compounds which had the best cytotoxic activities. These tests were carried out on purified tubulin by the Shelanski method (Shelanski, M. C.; Gaskin, F.; Cantor, C. R. Proc. Natl. Acad. Sci. USA, 1973, 70, 765-768) from pig brains, where it forms 20-25% of the soluble proteins. Purification method is based on temperature-dependent assembling-disassembling cycles. Polymerization of tubulin was tracked with turbidimetry according to the Gaskin method (Gaskin, F.; Cantor, C. R.; Shelanski, M. L. J. Bio. Mol. 1974, 89, 737) at a wavelength of 350 nm. The different samples were dissolved in DMSO and incubated for 10 minutes at 37° C. and then for 5 minutes at 0° C.
The CA-4 compound and DMSO were taken as references.
The tests have shown for these compounds an activity inhibiting polymerization of tubulin similar to the one of the reference compound CA-4 (of the order of only one micromolar concentration to a few tens of micromolar concentrations).

HCT116 cells = assay: Study of apoptosis (caspase-3/7 activity); format: cell-based, human; conditions: HCT116, 24 hours
Description: (§4) In order to specify whether the compound (I-1) causes cell death by apoptosis, the intracellular enzymatic activity of caspases 3 and 7 was evaluated in cultures of K562, HCT116 and MDA-MB 231 cells exposed for 24 hours to the action of the compound (I-1).
(§5) Apoptosis is measured by using the kit “Apo-one homogeneous caspase-3/7 assay” (Promega Co., WI, USA) by following the recommendations of the manufacturer. Briefly, the cells are sown in 96-well culture plates with 50,000 cells per well in 100 μL of culture medium. After 24 hours of incubation, the medium is replaced with 100 μL of culture medium containing different concentrations of the compound […] or 0.1% DMSO (negative control). After 24 hours of treatment, 100 μL of reagent containing the substrate of the caspase and the buffer of the reaction are added into each well. After 1 hour of incubation, the fluorescence emitted by the cell is measured at 527 nm with a microplate reader of the Victor type (Perkin-Elmer, USA).

MDA-MB 231 cells = assay: Study of apoptosis (caspase-3/7 activity); format: cell-based, human; conditions: MDA-MB 231, 24 hours
Description: as §4, §5

K562 cells = assay: Study of apoptosis (caspase-3/7 activity); format: cell-based, human; conditions: K562, 24 hours
Description: as §4, §5

[4] = test system: human endothelial cells (EAhy926); assay: Formation of vascular tubes on Matrigel; format: cell-based; conditions: EAhy926, treatment of 3 hours, 10 nM
Description: In order to know whether the compound (I-1) perturbs the spatial organization of endothelial cells in structures similar to vascular capillaries, human endothelial cells (EAhy926) were treated immediately after cultivation on Matrigel® or after 24 hours of cultivation, in order to allow them to form vascular tubes.
In order to evaluate the antivascular activity of the compound (I-1), the EAhy926 cells were cultivated in 96-well culture plates covered beforehand with an extract of extracellular matrix (Matrigel™, BD Biosciences, Le Pont-de-Claix, France) in which they spontaneously form capillary tubes.
First of all, we measured the capacity of the compound (I-1) of inhibiting the formation of the capillary network. Matrigel™ is deposited in 96-well culture plates in an amount of 70 μL/well and left to incubate at 37° C. for 45 minutes in order to allow its polymerization. 15,000 cells suspended in 150 μL of culture medium are sown per well in each of the wells containing Matrigel™ in the absence or in the presence of different concentrations of the compound (I-1), with 3 wells per concentration. After 1 hour, 3 hours and 6 hours of incubation at 37° C., the cells are observed and photographed by means of an optical microscope of the TE2000 type (Nikon, France), equipped with a camera. […]

T1 sequence (P02554 whole entry): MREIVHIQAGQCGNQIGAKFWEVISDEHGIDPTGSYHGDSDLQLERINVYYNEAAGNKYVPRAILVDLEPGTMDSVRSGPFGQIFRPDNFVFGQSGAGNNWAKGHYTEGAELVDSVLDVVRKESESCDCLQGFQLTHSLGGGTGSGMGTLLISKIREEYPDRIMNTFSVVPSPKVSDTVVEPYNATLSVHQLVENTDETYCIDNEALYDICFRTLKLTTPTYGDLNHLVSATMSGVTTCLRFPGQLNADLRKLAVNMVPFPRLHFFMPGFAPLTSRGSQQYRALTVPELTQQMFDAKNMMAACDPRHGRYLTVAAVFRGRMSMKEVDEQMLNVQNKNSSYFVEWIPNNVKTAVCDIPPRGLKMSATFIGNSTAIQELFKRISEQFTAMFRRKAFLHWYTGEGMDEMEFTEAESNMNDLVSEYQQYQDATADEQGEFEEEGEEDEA
T1 sequence (P02550 whole entry): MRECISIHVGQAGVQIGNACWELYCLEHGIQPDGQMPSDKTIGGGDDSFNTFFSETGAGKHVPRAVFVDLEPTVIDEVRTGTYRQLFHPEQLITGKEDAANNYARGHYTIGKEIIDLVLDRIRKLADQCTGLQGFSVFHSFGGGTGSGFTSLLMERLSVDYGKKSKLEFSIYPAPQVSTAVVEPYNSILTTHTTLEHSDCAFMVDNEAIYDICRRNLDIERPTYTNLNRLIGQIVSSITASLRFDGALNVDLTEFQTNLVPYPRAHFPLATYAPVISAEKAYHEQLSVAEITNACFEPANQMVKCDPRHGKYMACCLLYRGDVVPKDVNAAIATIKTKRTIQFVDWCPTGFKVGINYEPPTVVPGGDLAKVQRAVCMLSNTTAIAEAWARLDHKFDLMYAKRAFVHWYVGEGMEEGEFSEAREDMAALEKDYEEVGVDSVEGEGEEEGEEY

With `C=C(c1ccc(OC)c(O)c1)c1cc(OC)c(OC)c(OC)c1` [(I-1)] the IC50 at 72 h [1] was 0.002 µM, the “Cytotoxic activity on endothelial cells, short treatment” value [2] was “does not exhibit any cytotoxic activity” and the IC50 [3] was 2.2 µM. For the same molecule, the “Induction of apoptosis (caspases 3 and 7)” value (from here on “Induction of apoptosis”) (HCT116 cells) was “strong induction of apoptosis”, the “Induction of apoptosis” value (MDA-MB 231 cells) was “strong induction of apoptosis” and the “Induction of apoptosis” value (K562 cells) was “strong induction of apoptosis”. For the same molecule, the “Number of vascular tubes on Matrigel” value [4] was “very significant decrease in the number of vascular tubes”.
